From the Kinase Knowledgebase extract (Sharma et al. 2016)

biological target: PIK3CG (human) (UniProt P48736); experiment: Inhibition of PIK3CG Kinase Assay
Sequence (P48736 whole entry, looked up): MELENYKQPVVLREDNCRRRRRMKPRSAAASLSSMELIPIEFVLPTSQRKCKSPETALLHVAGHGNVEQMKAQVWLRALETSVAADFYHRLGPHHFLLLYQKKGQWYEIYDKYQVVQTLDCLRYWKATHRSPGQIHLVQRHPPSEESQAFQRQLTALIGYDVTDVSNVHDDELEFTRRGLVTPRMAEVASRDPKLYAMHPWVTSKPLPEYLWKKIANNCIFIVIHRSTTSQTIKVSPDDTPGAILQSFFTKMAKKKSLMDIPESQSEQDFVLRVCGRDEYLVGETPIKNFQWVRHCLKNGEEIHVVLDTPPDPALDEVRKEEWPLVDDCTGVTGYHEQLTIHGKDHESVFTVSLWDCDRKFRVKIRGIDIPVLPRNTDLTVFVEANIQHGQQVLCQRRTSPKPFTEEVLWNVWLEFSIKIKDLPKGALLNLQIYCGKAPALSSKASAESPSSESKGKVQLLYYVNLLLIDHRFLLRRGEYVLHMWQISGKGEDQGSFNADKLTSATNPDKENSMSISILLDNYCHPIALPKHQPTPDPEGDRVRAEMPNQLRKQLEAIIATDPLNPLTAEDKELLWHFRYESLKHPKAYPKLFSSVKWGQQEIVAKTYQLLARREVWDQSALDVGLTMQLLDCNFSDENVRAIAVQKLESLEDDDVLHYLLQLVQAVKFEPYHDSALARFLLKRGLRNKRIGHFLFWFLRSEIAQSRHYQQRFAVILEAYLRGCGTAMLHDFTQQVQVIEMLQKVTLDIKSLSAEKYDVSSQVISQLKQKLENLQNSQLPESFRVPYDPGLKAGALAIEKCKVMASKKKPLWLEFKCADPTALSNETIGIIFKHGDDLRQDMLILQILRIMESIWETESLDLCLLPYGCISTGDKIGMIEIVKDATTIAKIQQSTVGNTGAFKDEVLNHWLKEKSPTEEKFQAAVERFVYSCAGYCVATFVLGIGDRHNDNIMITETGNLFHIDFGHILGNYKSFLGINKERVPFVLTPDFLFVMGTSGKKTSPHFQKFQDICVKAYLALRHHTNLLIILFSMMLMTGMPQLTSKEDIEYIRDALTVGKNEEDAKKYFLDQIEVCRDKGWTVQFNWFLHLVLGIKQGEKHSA

SMILES	IC50 [nM]
O/C(=C\C1=Nc2ccccc2C2=NCCN12)c1ccco1	100 to 500
NS(=O)(=O)c1ccc(C(=O)NC2=Nc3ccccc3C3=NCCN23)c(Cl)c1	> 2000
CC(=O)Nc1ccc(/C(O)=C/C2=Nc3cc(N4CCN(C)CC4)ccc3C3=NCCN23)cn1	100 to 500
COc1ccc2c(c1OC)N=C(/C=C(\O)c1cccnc1)N1CCN=C21	≤ 100
COc1cc2c(cc1OC)C1=NCCN1C(NC(=O)c1ccc(NC(C)=O)nc1)=N2	100 to 500
O/C(=C\C1=Nc2cc(Cl)ccc2C2=NCCN12)c1cccnc1	100 to 500
CN(C=O)c1ccc(C(=O)NC2=Nc3ccccc3C3=NCCN23)cc1	> 2000
COc1cc2c(c(OC)c1C)N=C(/C=C(\O)c1ccc(NC(C)=O)nc1)N1CCN=C21	≤ 100
COc1c(OCCO)ccc2c1N=C(/C=C(\O)c1cccnc1)N1CCN=C21	≤ 100
Cc1nc(N)ccc1C(=O)NC1=Nc2ccccc2C2=NCCN12	100 to 500
CC(=O)Nc1ccc(C(=O)NC2=Nc3ccccc3C3=NCCN23)cn1	≤ 100
CC(=O)Nc1ccc(/C(O)=C/C2=Nc3cc(CN4CCOCC4)ccc3C3=NCCN23)cn1	100 to 500
COc1ccc2c(c1)C1=NCCN1C(/C=C(\O)c1cccnc1)=N2	100 to 500
O/C(=C\C1=Nc2c(cccc2C(F)(F)F)C2=NCCN12)c1cccnc1	100 to 500
COc1cc(OC)c2c(c1)C1=NCCN1C(NC(=O)c1ccc3[nH]cnc3c1)=N2	≤ 100
O=C(NC1=Nc2ccccc2C2=NCCN12)c1sccc1Cl	100 to 500
COc1ccc2c(c1OC)N=C(NC(=O)c1cnc3[nH]cnc3c1)N1CCN=C21	≤ 100
O=C(NC1=Nc2ccccc2C2=NCCN12)c1ccncc1	500 to 2000
O=C(NC1=Nc2ccccc2C2=NCCN12)c1cccc([N+](=O)[O-])c1	> 2000
CSc1ccc(C(=O)NC2=Nc3ccccc3C3=NCCN23)cc1	> 2000
COc1cc2c(c(OC)c1C)N=C(/C=C(\O)c1cccnc1)N1CCN=C21	≤ 100
O=C(NC1=Nc2ccccc2C2=NCCN12)c1ccc([N+](=O)[O-])cc1	> 2000

SMILES	IC50 [nM]
O/C(=C\C1=Nc2ccccc2C2=NCCN12)c1ccno1	100 to 500
Cc1ccc(C(=O)NC2=Nc3cc(N4CCOCC4)ccc3C3=NCCN23)cn1	≤ 100
Cc1ccncc1C(=O)NC1=Nc2ccccc2C2=NCCN12	100 to 500
O=C(NC1=Nc2ccccc2C2=NCCN12)c1cncc(O)c1	≤ 100
O/C(=C\C1=Nc2cc(N3CCOCC3)ccc2C2=NCCN12)c1ccc2[nH]cnc2c1	≤ 100
Cc1ccc2c(c1)N=C(NC(=O)c1cccnc1)N1CCN=C21	≤ 100
O/C(=C\C1=Nc2ccc(Cl)cc2C2=NCCN12)c1cccnc1	100 to 500
CN(C)c1cccc(C(=O)NC2=Nc3ccccc3C3=NCCN23)c1	> 2000
O=C(NC1=Nc2ccccc2C2=NCCN12)c1c[nH]cn1	100 to 500
O/C(=C\C1=Nc2ccccc2C2=NCCN12)c1ccncc1	100 to 500
O=C(NC1=Nc2ccccc2C2=NCCN12)c1ccc(Cl)nc1	500 to 2000
Cc1ccc(C(=O)NC2=Nc3ccccc3C3=NCCN23)cn1	≤ 100
Cc1cnc(C(=O)NC2=Nc3ccccc3C3=NCCN23)cn1	500 to 2000
O=C(NC1=Nc2ccccc2C2=NCCN12)c1ccccn1	500 to 2000
O=C(NC1=Nc2ccccc2C2=NCCN12)c1ccc(-n2cccn2)cc1	> 2000
NS(=O)(=O)c1ccc(C(=O)NC2=Nc3ccccc3C3=NCCN23)cc1	500 to 2000
Cn1cccc1C(=O)NC1=Nc2ccccc2C2=NCCN12	500 to 2000
Cc1ccc2c(c1)N=C(/C=C(\O)c1cccnc1)N1CCN=C21	100 to 500
Cc1cc(C(=O)NC2=Nc3ccccc3C3=NCCN23)cc(C)c1[N+](=O)[O-]	> 2000
CC(=O)Nc1ccc(C(=O)NC2=Nc3cc(N4CCOCC4)ccc3C3=NCCN23)cc1	100 to 500
CCOC(=O)c1cc(C(=O)NC2=Nc3ccccc3C3=NCCN23)cc(C(=O)OCC)c1	> 2000
CC(=O)NC1CCN(c2ccc3c(c2)N=C(/C=C(\O)c2cccnc2)N2CCN=C32)C1 (centres undefined)	≤ 100
